Reference: patent US20080234276A1, “Heterocyclic Triazines as Hypoxic Selective Protein Kinase Inhibitors” (SENTINEL ONCOLOGY LIMITED, priority 2005, published 2008)
Each block holds one molecule with its values, some of them ahead of it.

Key:
Format in all cases: biochemical
[1] = molecular target: T1, p70S6K (h) (Homo sapiens, UniProt P23443); experiment: p70S6K (h) kinase assay (Upstate, 33P-ATP filtermat); conditions: 100 uM of inhibitor, ATP 15 uM; for inhibition at 100 µM: read-out: P70S6 (h) % inhibition
T1 construct: purchased Upstate Ltd
Procedure: (§1) The compounds of the invention prepared in Examples 1-32 were tested for kinase inhibition against a range of common protein kinases. All kinase assays were conducted at Upstate Ltd, Gemini Crescent, Dundee Technology Park, Dundee, DD2 1SW, UK in accordance with its standard protocols as follows:
(§2) In a final reaction volume of 25 μl, p70S6K (h) (5-10 mU) is incubated with 8 mM MOPS pH 7.0, 0.2 mM EDTA, 100 μM KKRNRTLTV, 10 mM MgAcetate and [[…]-33P-ATP] (specific activity approx. 500 cpm/pmol, concentration as required). The reaction is initiated by the addition of the MgATP mix. After incubation for 40 minutes at room temperature, the reaction is stopped by the addition of 5 μl of a 3% phosphoric acid solution. 10 μl of the reaction is then spotted onto a P30 filtermat and washed three times for 5 minutes in 75 mM phosphoric acid and once in methanol prior to drying and scintillation counting.
(§3) Data for compounds. ATP concentrations are: Arg=45 uM; abl=45 uM; AuroraA=15 uM; Chk1=90 uM; KDR=90 uM; P70S6=15 uM. Figures represent the % inhibition when tested at 100 uM of inhibitor.

[2] = molecular target: T2, CHK1 (h) (Homo sapiens, UniProt O14757); experiment: CHK1 (h) kinase assay (Upstate, 33P-ATP filtermat); conditions: 100 uM of inhibitor; ATP 90 uM
T2 construct: purchased Upstate Ltd
T2 sequence (O14757 1-476): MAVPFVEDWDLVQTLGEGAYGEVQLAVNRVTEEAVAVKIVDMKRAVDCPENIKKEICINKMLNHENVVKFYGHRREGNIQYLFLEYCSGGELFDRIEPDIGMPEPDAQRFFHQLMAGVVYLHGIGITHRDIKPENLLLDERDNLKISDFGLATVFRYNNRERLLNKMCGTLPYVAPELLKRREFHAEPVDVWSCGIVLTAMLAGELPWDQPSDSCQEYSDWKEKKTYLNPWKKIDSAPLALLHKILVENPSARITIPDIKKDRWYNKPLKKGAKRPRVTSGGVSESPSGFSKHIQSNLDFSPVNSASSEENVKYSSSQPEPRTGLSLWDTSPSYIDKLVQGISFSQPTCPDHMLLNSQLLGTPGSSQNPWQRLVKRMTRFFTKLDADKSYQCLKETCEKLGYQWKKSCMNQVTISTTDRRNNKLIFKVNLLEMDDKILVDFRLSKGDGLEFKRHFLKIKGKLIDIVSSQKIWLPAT
Procedure: as §1
as §2, with “CHK1” for “p70S6K”, “200” for “100”, “[…],” for “KKRNRTLTV,”, “[…]-33P-ATP]” for “[[…]-33P-ATP]”
as §3

[3] = molecular target: T3, Aurora-A (h) (Homo sapiens, UniProt O14965); experiment: Aurora-A (h) kinase assay (Upstate, 33P-ATP filtermat); conditions: 100 uM of inhibitor, ATP 15 uM; for inhibition at 100 µM: read-out: AuroraA (h) % inhibition
T3 construct: purchased Upstate Ltd
T3 sequence (O14965 1-403): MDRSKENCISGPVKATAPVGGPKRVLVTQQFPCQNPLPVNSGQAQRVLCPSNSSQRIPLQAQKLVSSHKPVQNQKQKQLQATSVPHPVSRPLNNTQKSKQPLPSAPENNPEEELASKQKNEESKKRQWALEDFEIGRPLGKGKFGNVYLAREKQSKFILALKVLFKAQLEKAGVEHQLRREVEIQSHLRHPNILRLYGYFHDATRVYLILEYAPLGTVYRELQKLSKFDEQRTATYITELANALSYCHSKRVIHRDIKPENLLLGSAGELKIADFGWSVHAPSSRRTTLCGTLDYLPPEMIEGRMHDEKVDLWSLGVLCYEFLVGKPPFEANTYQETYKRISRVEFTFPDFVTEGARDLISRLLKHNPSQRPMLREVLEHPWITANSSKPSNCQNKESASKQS
Procedure: as §1
as §2, with “Aurora-A” for “p70S6K”, “200” for “100”, “LRRASLG (Kemptide),” for “KKRNRTLTV,”, “[…]-33P-ATP]” for “[[…]-33P-ATP]”, “50” for “75”
as §3

[4] = molecular target: T4, KDR (h) (Homo sapiens, UniProt P35968); experiment: KDR (h) kinase assay (Upstate, 33P-ATP filtermat); conditions: 100 uM of inhibitor; ATP 90 uM
T4 construct: purchased Upstate Ltd
Procedure: as §1
as §2, with “KDR” for “p70S6K”, “0.33 mg/ml myelin basic protein,” for “100 μM KKRNRTLTV,”
as §3

[5] = molecular target: T5, Abl (h) (Homo sapiens, UniProt P00519); experiment: Abl (h) kinase assay (Upstate, 33P-ATP filtermat); conditions: 100 uM of inhibitor; ATP 45 uM
T5 construct: purchased Upstate Ltd
Procedure: as §1
as §2, with “Abl” for “p70S6K”, “50” for “100”, “EAIYAAPFAKKK,” for “KKRNRTLTV,”
as §3

[6] = molecular target: T6, Arg (h) (Homo sapiens, UniProt P42684); experiment: Arg (h) kinase assay (Upstate, 33P-ATP filtermat); conditions: 100 uM of inhibitor; ATP 45 uM
T6 construct: purchased Upstate Ltd
Procedure: as §1
as §2, with “Arg” for “p70S6K”, “50” for “100”, “EAIYAAPFAKKK,” for “KKRNRTLTV,”
as §3

T1 sequence (P23443 whole entry): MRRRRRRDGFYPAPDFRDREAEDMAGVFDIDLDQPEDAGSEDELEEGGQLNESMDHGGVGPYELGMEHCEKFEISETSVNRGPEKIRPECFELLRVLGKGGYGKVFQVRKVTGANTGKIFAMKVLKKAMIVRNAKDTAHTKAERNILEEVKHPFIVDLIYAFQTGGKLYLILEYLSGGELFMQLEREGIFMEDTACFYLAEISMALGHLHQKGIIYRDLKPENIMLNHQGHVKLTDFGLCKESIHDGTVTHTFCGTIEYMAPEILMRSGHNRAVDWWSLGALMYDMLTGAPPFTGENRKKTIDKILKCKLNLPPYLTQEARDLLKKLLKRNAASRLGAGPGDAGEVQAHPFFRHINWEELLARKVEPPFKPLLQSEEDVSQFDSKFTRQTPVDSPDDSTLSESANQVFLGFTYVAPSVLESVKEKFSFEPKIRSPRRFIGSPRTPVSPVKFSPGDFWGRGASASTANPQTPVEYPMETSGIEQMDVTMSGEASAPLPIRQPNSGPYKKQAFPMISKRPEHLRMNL
T6 sequence (P42684 whole entry): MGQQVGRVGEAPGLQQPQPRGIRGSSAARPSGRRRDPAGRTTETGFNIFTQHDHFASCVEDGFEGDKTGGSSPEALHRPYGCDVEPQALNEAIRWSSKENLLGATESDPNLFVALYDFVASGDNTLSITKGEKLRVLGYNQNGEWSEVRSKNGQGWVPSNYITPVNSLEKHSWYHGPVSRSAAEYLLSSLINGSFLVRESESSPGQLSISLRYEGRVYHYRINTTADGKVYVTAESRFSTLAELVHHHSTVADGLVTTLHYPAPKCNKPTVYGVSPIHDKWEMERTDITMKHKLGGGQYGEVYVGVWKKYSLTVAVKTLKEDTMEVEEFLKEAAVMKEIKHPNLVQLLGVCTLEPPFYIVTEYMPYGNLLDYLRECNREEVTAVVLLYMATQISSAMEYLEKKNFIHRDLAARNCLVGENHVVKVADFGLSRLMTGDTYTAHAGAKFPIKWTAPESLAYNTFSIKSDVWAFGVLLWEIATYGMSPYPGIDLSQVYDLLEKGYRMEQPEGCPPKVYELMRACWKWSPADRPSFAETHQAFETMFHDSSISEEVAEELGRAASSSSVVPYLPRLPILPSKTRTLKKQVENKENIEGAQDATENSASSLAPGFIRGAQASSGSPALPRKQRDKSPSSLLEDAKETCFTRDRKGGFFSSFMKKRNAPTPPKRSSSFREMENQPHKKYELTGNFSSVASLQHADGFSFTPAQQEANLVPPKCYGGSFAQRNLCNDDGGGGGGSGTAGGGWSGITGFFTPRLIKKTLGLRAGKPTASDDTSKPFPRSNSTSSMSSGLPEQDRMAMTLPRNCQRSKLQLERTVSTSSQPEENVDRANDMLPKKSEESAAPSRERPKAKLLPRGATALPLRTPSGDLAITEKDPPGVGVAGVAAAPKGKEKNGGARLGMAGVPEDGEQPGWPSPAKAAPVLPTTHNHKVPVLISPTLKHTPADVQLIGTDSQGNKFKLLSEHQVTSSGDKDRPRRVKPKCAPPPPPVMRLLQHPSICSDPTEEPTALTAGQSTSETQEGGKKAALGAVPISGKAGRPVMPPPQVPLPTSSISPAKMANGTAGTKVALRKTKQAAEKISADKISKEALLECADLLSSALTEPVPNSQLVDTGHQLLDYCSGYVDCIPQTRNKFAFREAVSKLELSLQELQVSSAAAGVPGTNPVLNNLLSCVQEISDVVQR
T5 sequence (P00519 whole entry): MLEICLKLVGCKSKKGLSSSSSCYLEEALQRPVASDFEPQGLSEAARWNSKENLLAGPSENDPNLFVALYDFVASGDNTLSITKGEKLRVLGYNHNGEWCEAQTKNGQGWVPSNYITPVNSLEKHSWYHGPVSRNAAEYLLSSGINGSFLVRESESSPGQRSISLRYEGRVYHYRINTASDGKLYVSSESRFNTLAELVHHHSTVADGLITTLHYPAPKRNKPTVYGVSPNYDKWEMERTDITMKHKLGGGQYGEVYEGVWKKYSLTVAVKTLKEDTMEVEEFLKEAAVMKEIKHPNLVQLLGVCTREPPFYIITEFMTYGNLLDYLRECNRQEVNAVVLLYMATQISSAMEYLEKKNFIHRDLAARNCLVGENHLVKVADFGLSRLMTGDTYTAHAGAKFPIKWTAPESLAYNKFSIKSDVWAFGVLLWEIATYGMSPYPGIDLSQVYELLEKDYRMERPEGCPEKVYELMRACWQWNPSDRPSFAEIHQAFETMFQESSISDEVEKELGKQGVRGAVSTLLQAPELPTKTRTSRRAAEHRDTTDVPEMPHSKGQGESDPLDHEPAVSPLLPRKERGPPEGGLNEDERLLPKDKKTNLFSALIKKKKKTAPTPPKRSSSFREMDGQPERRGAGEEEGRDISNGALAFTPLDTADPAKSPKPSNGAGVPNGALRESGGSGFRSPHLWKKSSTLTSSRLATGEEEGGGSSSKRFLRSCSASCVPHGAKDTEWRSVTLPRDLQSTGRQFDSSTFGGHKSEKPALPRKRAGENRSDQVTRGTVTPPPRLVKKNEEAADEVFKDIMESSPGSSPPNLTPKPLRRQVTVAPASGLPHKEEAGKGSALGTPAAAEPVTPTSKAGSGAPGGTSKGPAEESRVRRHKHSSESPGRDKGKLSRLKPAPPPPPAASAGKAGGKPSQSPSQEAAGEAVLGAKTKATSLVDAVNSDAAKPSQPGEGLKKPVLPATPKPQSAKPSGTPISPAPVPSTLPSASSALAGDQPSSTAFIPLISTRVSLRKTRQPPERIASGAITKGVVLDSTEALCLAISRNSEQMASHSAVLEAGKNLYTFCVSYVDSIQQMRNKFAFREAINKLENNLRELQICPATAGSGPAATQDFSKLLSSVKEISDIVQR
T4 sequence (P35968 20-1356): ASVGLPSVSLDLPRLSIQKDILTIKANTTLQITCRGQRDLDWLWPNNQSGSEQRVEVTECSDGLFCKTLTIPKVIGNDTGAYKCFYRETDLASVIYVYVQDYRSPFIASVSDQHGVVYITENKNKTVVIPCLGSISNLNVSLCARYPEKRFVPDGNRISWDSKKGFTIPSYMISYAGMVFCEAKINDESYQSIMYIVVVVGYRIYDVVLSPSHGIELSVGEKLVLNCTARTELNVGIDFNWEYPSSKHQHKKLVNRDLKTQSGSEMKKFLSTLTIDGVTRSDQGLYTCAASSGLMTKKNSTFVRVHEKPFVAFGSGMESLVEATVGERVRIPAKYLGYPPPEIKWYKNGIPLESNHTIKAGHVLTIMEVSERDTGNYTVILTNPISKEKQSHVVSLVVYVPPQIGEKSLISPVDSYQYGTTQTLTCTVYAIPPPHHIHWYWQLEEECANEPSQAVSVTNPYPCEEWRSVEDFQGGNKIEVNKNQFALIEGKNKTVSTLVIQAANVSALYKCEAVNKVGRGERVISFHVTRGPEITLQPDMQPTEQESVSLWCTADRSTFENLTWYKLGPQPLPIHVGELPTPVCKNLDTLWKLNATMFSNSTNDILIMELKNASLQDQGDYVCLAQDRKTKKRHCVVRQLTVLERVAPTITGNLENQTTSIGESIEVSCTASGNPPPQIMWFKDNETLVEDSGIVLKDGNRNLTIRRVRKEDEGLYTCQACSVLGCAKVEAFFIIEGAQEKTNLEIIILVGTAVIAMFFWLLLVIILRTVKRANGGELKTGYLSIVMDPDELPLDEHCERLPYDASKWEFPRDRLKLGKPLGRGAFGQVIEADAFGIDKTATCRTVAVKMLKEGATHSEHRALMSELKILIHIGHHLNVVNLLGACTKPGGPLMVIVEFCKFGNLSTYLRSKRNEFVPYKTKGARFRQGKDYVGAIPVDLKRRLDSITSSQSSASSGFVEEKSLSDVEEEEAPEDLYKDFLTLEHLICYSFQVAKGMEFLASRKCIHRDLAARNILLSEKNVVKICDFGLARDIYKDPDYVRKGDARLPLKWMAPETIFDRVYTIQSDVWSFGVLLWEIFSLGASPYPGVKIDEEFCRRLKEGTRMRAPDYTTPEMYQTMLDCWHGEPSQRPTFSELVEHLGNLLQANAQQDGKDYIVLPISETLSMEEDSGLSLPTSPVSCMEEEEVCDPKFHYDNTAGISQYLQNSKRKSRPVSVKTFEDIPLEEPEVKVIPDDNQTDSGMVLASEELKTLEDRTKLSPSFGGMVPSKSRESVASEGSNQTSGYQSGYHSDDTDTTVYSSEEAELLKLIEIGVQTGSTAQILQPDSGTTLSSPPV

Compound: Cc1cc(Nc2nc3ccccc3[n+]([O-])n2)n[nH]1 [Example 10, (5-Methyl-1H-pyrazol-3-yl)-(1-oxy-benzo[1,2,4]triazin-3-yl)-amine]
- Chk1 (h) % inhibition [2]: 20%
- AuroraA (h) % inhibition [3]: 40%

Compound: [O-][n+]1nc(-c2cn[nH]c2)nc2ccccc21 [Example 12, 3-(1H-Pyrazol-4-yl)-benzo[1,2,4]triazine 1-oxide]
- inhibition at 100 µM [1]: 87%
- inhibition at 100 µM [2]: 3%
- inhibition at 100 µM [3]: 69%
- inhibition at 100 µM [4]: 97%

Compound: Nc1nc2ccc(-c3ccn[nH]3)cc2[n+]([O-])n1 [Example 15, 1-Oxy-7-(2H-pyrazol-3-yl)-benzo[1,2,4]triazin-3-ylamine]
- P70S6 (h) % inhibition [1]: 29%
- Chk1 (h) % inhibition [2]: 10%
- AuroraA (h) % inhibition [3]: 90%
- KDR (h) % inhibition [4]: 46%

Compound: c1ccc2nc(-c3cc[nH]n3)nnc2c1 [Example 16, 3-(1H-Pyrazol-3-yl)-benzo[1,2,4]triazine]
- inhibition at 100 µM [1]: 10%
- inhibition at 100 µM [3]: 41%
- inhibition at 100 µM [4]: 17%

Compound: [O-][n+]1nc(-c2cc[nH]n2)nc2ccccc21 [Example 17, 3-(1H-Pyrazol-3-yl)-benzo[1,2,4]triazine 1-oxide]
- inhibition at 100 µM [1]: 0%
- inhibition at 100 µM [3]: 39%
- inhibition at 100 µM [4]: 0%

Compound: O=C(Nc1ccc2nncnc2c1)Nc1cnccn1 [Example 18, 1-Benzo[1,2,4]triazin-6-yl-3-pyrazin-2-yl-urea]
- inhibition at 100 µM [2]: 23%

Compound: Nc1nc2cc(N3CCNCC3)ccc2[n+]([O-])n1 [Example 25, 1-Oxy-6-piperazin-1-yl-benzo[1,2,4]triazin-3-ylamine]
- P70S6 (h) % inhibition [1]: 43%
- KDR (h) % inhibition [4]: 18%

Compound: Nc1nnc2ccc(N3CCNCC3)cc2n1 [Example 26, 6-Piperazin-1-yl-benzo[1,2,4]triazin-3-ylamine]
- inhibition at 100 µM [1]: 37%
- inhibition at 100 µM [4]: 98%

Compound: Cl.Nc1nc2cc(OCC3CCNCC3)ccc2[n+]([O-])n1 [Example 27, 1-Oxy-6-(piperidin-4-ylmethoxy)-benzo[1,2,4]triazin-3-ylamine.hydrochloride]
- P70S6 (h) % inhibition [1]: 62%
- KDR (h) % inhibition [4]: 3%

Compound: Cl.Nc1nnc2ccc(OCC3CCNCC3)cc2n1 [Example 28, 6-(Piperidin-4-ylmethoxy)-benzo[1,2,4]triazin-3-ylamine.hydrochloride]
- P70S6 (h) % inhibition [1]: 47%
- KDR (h) % inhibition [4]: 6%

Compound: Nc1nc2cc(OCCc3ccc(Cl)c(Cl)c3)ccc2[n+]([O-])n1 [Example 29, 6-[2-(3,4-Dichloro-phenyl)-ethoxy]-1-oxy-benzo[1,2,4]triazin-3-ylamine]
- P70S6 (h) % inhibition [1]: 49%
- KDR (h) % inhibition [4]: 0%

Compound: Nc1nnc2ccc(OCCc3ccc(Cl)c(Cl)c3)cc2n1 [Example 30, 6-[2-(3,4-Dichloro-phenyl)-ethoxy]-benzo[1,2,4]triazin-3-ylamine]
- inhibition at 100 µM [1]: 52%
- inhibition at 100 µM [4]: 11%

Further lines, results first:

- P70S6 (h) % inhibition [1]: 0%
- Chk1 (h) % inhibition [2]: 14%
- AuroraA (h) % inhibition [3]: 64%
Compound: [O-][n+]1nc(Nc2cccnc2)nc2ccccc21 [Example 4, (1-Oxy-benzo[1,2,4]triazin-3-yl)-pyridin-3-yl-amine]

- inhibition at 100 µM [2]: 93%
Compound: CN(C)CCCOc1ccc(Cl)cc1NC(=O)Nc1nnc2ccccc2n1 [Example 9, 1-Benzo[1,2,4]triazin-3-yl-3-[5-chloro-2-(3-dimethylamino-propoxy)-phenyl]-urea]

- inhibition at 100 µM [1]: 92%
- inhibition at 100 µM [2]: 13%
- inhibition at 100 µM [3]: 90%
- inhibition at 100 µM [4]: 80%
Compound: c1ccc2nc(-c3cn[nH]c3)nnc2c1 [Example 13, 3-(1H-Pyrazol-4-yl)-benzo[1,2,4]triazine]

- inhibition at 100 µM [1]: 47%
- inhibition at 100 µM [2]: 20%
- inhibition at 100 µM [3]: 81%
- inhibition at 100 µM [4]: 89%
Compound: Nc1nnc2cc(-c3ccn[nH]3)ccc2n1 [Example 14, 7-(2H-Pyrazol-3-yl)-benzo[1,2,4]triazin-3-ylamine]

- inhibition at 100 µM [3]: 79%
- inhibition at 100 µM [5]: 89%
- inhibition at 100 µM [6]: 95%
Compound: c1ccc2nc(Nc3ccc(N4CCNCC4)nc3)nnc2c1 [Example 19, Benzo[1,2,4]triazin-3-yl-(6-piperazin-1-yl-pyridin-3-yl)-amine]

- inhibition at 100 µM [3]: 58%
- inhibition at 100 µM [5]: 76%
- inhibition at 100 µM [6]: 84%
Compound: Clc1ccc2nnc(Nc3cccnc3)nc2c1 [Example 21, (6-Chloro-benzo[1,2,4]triazin-3-yl)-pyridin-3-yl-amine]

- AuroraA (h) % inhibition [3]: 82%
Compound: [O-][n+]1nc(Nc2cccnc2)nc2cc(Cl)ccc21 [Example 22, (6-Chloro-1-oxy-benzo[1,2,4]triazin-3-yl)-pyridin-3-yl-amine]

- inhibition at 100 µM [3]: 68%
- inhibition at 100 µM [5]: 80%
- inhibition at 100 µM [6]: 83%
Compound: c1ccc(-c2ccc3nnc(Nc4cccnc4)nc3c2)cc1 [Example 23, (6-Phenyl-benzo[1,2,4]triazin-3-yl)-pyridin-3-yl-amine]

- AuroraA (h) % inhibition [3]: 92%
Compound: [O-][n+]1nc(Nc2cccnc2)nc2cc(-c3ccccc3)ccc21 [Example 24, (1-Oxy-6-phenyl-benzo[1,2,4]triazin-3-yl)-pyridin-3-yl-amine]
